Measured values taken from patent publication US10682371B2, “Small molecule conjugates specifically activated in tumor microenvironment for targeting and use thereof” (priority 2014, dated 2020).

Key:
[1] = tested on: Human fibrosarcoma HT-1080 tumor tissue homogenate; assay type: biochemical; conditions: Human fibrosarcoma HT-1080; 1 mg/ml, 100 μg acidized homogenate pH6.0; Paclitaxel release by HPLC
Summary of the method: (§1)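 Activation efficiency by tissue proteases is the read-out. Each sample compound, at 1 mg/ml, was incubated with 100 μg of acid-treated homogenate at pH6.0 and 37° C.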

[2] = tested on: tumor tissue homogenates; assay type: biochemical
Summary of the method: as §1

[3] = Solubility / formulation test in solvent 1 and solvent 2; assay type: physicochemical
[4] = tested on: Human prostate cancer PC-3 cells / Panc-1 cells; experiment: Tumor treatment in nude mice (PC-3 cells purchased, Panc-1 cells injected; Examples 22, 32, 42); assay type: in vivo
Summary of the method: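 Nude mice bearing subcutaneous Panc-1 xenografts (5×10^6 cells on the back) were randomized once tumors reached at least 100 mm^3. Drugs were given intravenously once weekly for four weeks, with saline controls. PC-3 cells were grown in DMEM/10% FBS and used within passage 15.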

[5] = tested on: 4T1 cells; experiment: BALB/C mice model for tumor metastasis (4T1, lung metastases); assay type: in vivo
Summary of the method: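 10^6 4T1 cells (DMEM, 10% FBS, within passage 15) injected subcutaneously into the back of BALB/C mice; primary tumor resected at about 1.5 cm, then dosing began. Drugs given IV once every three days, 4 times; saline controls. Lungs removed day 27, Bouin's-stained, metastases counted under anatomical microscope.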

[6] = tested on: Human ovarian cancer SK-OV-3; experiment: Multiple tumor models in nude mice: SK-OV-3; assay type: in vivo; conditions: Table 29, i.v. 17.6 μmol/kg once weekly for three weeks
Method: (§2) 1) Corresponding tumor cells were purchased from American type culture collection (ATCC) and identified according the specification provided by ATCC. Cells were cultivated in DMEM culture solution containing 10% fetal bovine serum at 37° C. and 5% CO2. The cells were passaged for every three days and cells within the 15th passage were used.
(§3) 2) Production of tumor. 5×10^6 corresponding cells were subcutaneously injected to the back of the nude mice. Mice were randomly grouped after the tumor reached at least 100 mm^3. Then treatment began and the day on which the treatment began was day 1.
(§4) 3) Course of treatment. […] The control group was administered by physiological saline. Animals were administered once weekly for three weeks.
(§5) 3) Course of treatment. According to the clinical application of A1, A1 was administered in a dose of ⅙ MTD, i.v., 17.6 μmol/kg. The control group was administered by physiological saline. Animals were administered once weekly for three weeks.
(§6) 3) Course of treatment. According to the clinical application of B1, B1 was administered in a dose of ⅙ MTD, i.v., 17.6 μmol/kg. The control group was administered by physiological saline. Animals were administered once weekly for three weeks.
as §4, §4

[7] = tested on: Human renal cancer OS-RC-2; experiment: Multiple tumor models in nude mice: OS-RC-2; assay type: in vivo; conditions: Table 29, i.v. 17.6 μmol/kg once weekly for three weeks
Method: as §2, §3, §4, §5, §6, §4, §4

[8] = tested on: BALB/C mice; experiment: Maximum tolerated dose (MTD) / acute toxicity by single intravenous injection; conditions: for Mortality rate (%) / Number of dead animal: single intravenous injection, 10 BALB/C mice per group
[9] = Table 26, nude mice, IV once weekly for four weeks, A1-A4 24 mg/kg, Paclitaxel 8 mg/kg, Day 10
[10] = Table 26, nude mice, IV once weekly for four weeks, A1-A4 24 mg/kg, Paclitaxel 8 mg/kg, Day 24
[11] = Table 28, BALB/C mice, 4T1, lung metastases day 27, IV every three days for 4 times, A1-A4 12 mg/kg, Paclitaxel 4 mg/kg

COCCOCC(=O)NCCCC[C@H](NC(=O)COCCOC)C(=O)N[C@H](C)C(=O)N[C@H](C)C(=O)N[C@H](CC(N)=O)C(=O)Nc1ccc(COC(=O)OC(C(=O)OC2C[C@@]3(O)[C@@H](OC(=O)c4ccccc4)[C@H]4[C@](C)(C(=O)[C@H](OC(C)=O)C(=C2C)C3(C)C)[C@@H](O)CC2OC[C@]24OC(C)=O)[C@@H](NC(=O)c2ccccc2)c2ccccc2)cc1 (some centres unmarked) [Compound A1]
Activation ratio (%) in homogenates from different tumor tissues [1]: 77.7%
Activation efficiency by tumor tissue, in words [2]: highest activation efficiency among the screened compounds
solubility in Solvent 1 ([3]; solvent 1 (injectable water), Table 22, Paclitaxel series): insoluble
Concentration achieved, completely dissolved in both solvent 1 and solvent 2 ([3]; solvent 1 injectable water, solvent 2 45% alcohol, 55% injectable water): 10000 µg/mL
solubility in Solvent 2 ([3]; solvent 2 (45% alcohol, 55% injectable water), Table 22, Paclitaxel series): soluble
Solubility in water, in words ([3]; water): can directly dissolve in water
Size of tumor (mm^3) Day 10 [4, 9]: 85.16 ± 58.4 mm^3
inhibitory rate on tumor Day 10 [4, 9]: 71.1%
Size of tumor (mm^3) Day 24 [4, 10]: 89.78 ± 63.7 mm^3
inhibitory rate on tumor Day 24 [4, 10]: 76.4%
Inhibition on tumor growth, in words ([4]; compared with parent drug group (same molar concentration) and control group): greatly improved
Inhibitory rate on metastasis [5, 11]: 97.9%
Number of metastasized tumor [5, 11]: 3 ± 4
Inhibitory effect on tumor metastasis, in words ([5]; compared with parent drug group and control group): greatly improved
inhibitory rate on tumor (Day 26) [6]: 84.4%
inhibitory rate on tumor (Day 26) [7]: 86.6%
Behaviors and death observed ([8]; BALB/C mice receiving 90 mg/kg injection): no pilo-erection, hair tousle and lackluster, lethargy, stoop, irritable reaction and death
MTD (maximum tolerated dose) ([8]; BALB/C mice, intravenous injection, one time): about 90 mg/kg
Mortality rate (%) ([8]; 125 mg/kg): 0%
Number of dead animal ([8]; 125 mg/kg): 0
Mortality rate (%) ([8]; 150 mg/kg): 0%
Number of dead animal ([8]; 150 mg/kg): 0
Mortality rate (%) ([8]; 175 mg/kg): 0%
Number of dead animal ([8]; 175 mg/kg): 0
Mortality rate (%) ([8]; 200 mg/kg): 0%
Number of dead animal ([8]; 200 mg/kg): 0
